In data set [1] the target is T1, ATM (Homo sapiens, UniProt Q13315).
T1 construct: endogenous in cells; host or cells: H1299 shGFP and shATM cells
As to the kind of experiment: Western blot of pATM, pKAP1 and pCHK2 in irradiated H1299 shGFP cells. It is filed as cell-based. The settings on record: irradiated (4 Gy) H1299 shGFP knockdown cells, inhibitor 1 h before irradiation, relative to DMSO control. How it is done: (§1) H1299 non-small cell lung cancer cells, either wild type or stably transfected with short hairpin RNA for ATM (shATM) or GFP (shGFP, as a control) expression knockdown, were kindly gifted by Dr Anderson Ryan at the University of Oxford. All cells were cultured at 37 °C and 5% CO2 in Dulbecco’s modified Eagle medium (DMEM) supplemented with 10% foetal bovine serum (FBS) (Gibco, USA), 2 mM L-glutamine, 100 units/mL penicillin, and 100 µg/mL streptomycin (PSG) (Sigma-Aldrich); knockdown cell lines were additionally supplemented with 0.5 μg/mL puromycin dihydrochloride (Merck Life Science, UK). Cells were originally purchased from ATCC and were authenticated by the provider and by STR profiling. Cells were tested regularly for the absence of mycoplasma contamination and were cultured for a maximum of 20 passages after resuscitation from liquid nitrogen storage.
A general note: In western blotting, separated proteins are transferred to a membrane and probed.

In data set [2] the target is T1, ATM. The data set can be described thus: Blocking of [18F]1 cell-associated activity by non-radioactive ATM inhibitors. It is filed as cell-based. The settings on record: for effect on [18F]1 cell-associated activity at high molar excess: 1000 nM inhibitor, compared to DMSO control; for effect on [18F]1 cell-associated activity at lower inhibitor concentrations: 0.1–10 nM inhibitor. How it is done:
as §1

Details of data set [3]: method as in PMID 29938225, PMID 33123736. The settings on record: phase I clinical trial; cited from earlier work.
Data set [4] concerns ATM. More on the design: method as in earlier work. The settings on record: cited from earlier work.
The test system of another data set is ATR. More on the design: method as in earlier work. The settings on record: read-out: Cellular IC50 by catalytic inhibition: ATR; cited from earlier work.
For a further data set, the system named is PI3K. More on the design: method as in earlier work. The settings on record: read-out: Cellular IC50 by catalytic inhibition: PI3K; cited from earlier work.
The next data set addresses T2, murine ATM (Mus musculus, UniProt Q62388).
T2 construct: endogenous in cells; host or cells: CT26 murine colorectal cancer cells
The data set can be described thus: Western blot of ATM inhibition in CT26 murine colorectal cancer cells. Format: cell-based. How it is done:
Western blot analysis was performed to compare the total ATM expression between cell models, in addition to expression of phospho-ATM^S1981 (pATM), phospho-KAP1^S824 (pKAP1), and phospho-CHK2^T68 (pCHK2) expression to assess the effect of irradiation and ATM inhibition on ATM catalytic activity. Cells were irradiated (4 Gy; 0.75 Gy/min) or sham-irradiated and incubated at 37 °C for 1 h before harvesting cells for lysis and blotting (full details in supporting information). Where required, inhibitors were added to cells at the stated concentration from DMSO stock solutions (reaching no greater than 10% DMSO final concentration) with incubation for 1 h prior to irradiation/sham-irradiation. The following antibodies and dilutions were used in this work: phospho-ATM S1981 (ab81292, 1:5000, Abcam); phospho-KAP1 S824 (ab133440, 1:10,000, Abcam); phospho-CHK2 T68 (#2661, 1:1000, Cell Signalling Technologies); Total ATM (ab32420, clone [Y170], 1:500, Abcam); Total KAP1 (ab10483, 1:1000, Abcam); Total CHK2 (05-649, 1:1000, Merck Millipore); HRP-conjugated Tubulin (ab197740, clone [YL1/2], 1:4000, Abcam); HRP-conjugated β-Actin (clone 13E5, 1:1000, Cell Signalling Technologies), HRP-conjugated anti-rabbit secondary (HAF008, 1:1000, R&D Systems); and HRP-conjugated anti-mouse secondary (HAF007, 1:1000, R&D Systems). […]

The next data set deals with mTOR. More on the design: method as in earlier work. The settings on record: read-out: Cellular IC50 by catalytic inhibition: mTOR; cited from earlier work.
Data set [5] in a line: PET/CT imaging and ex vivo biodistribution in wild type and ATM-null mice. More on the design: species or system C57BL/6 mice. The settings on record: 1 h after intravenous administration. How it is done: (§2) All animal procedures were performed in accordance with the UK Animals (Scientific Procedures) Act 1986 and with local ethical committee approval. Mice were bred from parent C57BL/6 J mice heterozygous for a targeted mutation in the ATM^tm1Awbl allele to produce ATM-null (ATM^−/−) mice (Jackson laboratory). Wild-type (ATM^+/+) mice from this breeding program were used as controls. In a separate study, tumour xenografts were created in BALB/c nu/nu mice (8 weeks old) via subcutaneous injection of H1299 wild type, shATM knockdown, or shGFP knockdown cells in a 1:1 PBS/Matrigel® formulation on both sides of the hind flank. Total tumour volumes were allowed to reach an average of 600 mm^3 (range 330–930 mm^3) before imaging and/or biodistribution studies (approx. 6–10 weeks after inoculation).
Animals were anaesthetised by 4% isoflurane gas (0.5 L/min O2) and maintained at approx. 2% and 37 °C throughout the imaging session. C57BL/6 ATM^+/+ and ATM^−/− mice were administered [^18F]1 (83 ng; 0.5–4.6 MBq, molar activity range of 3.2–24.2 GBq/μmol with a standard deviation of 6.5 GBq/μmol) via intravenous bolus injection in the lateral tail vein. […] PET images were each registered to CT, attenuation corrected, calibrated by imaging a phantom containing a fluorine-18 standard solution, and analysed using PMod software package (version 3.807, PMOD Technologies).

A short description of data set [6]: Ex vivo biodistribution, uptake in H1299 tumour xenografts. More on the design: species or system BALB/c nu/nu mice. As for the experimental part:
as §2
Animals were anaesthetised by 4% isoflurane gas (0.5 L/min O2) and maintained at approx. 2% and 37 °C throughout the imaging session. C57BL/6 ATM^+/+ and ATM^−/− mice were administered [^18F]1 (83 ng; 0.5–4.6 MBq, molar activity range of 3.2–24.2 GBq/μmol with a standard deviation of 6.5 GBq/μmol) via intravenous bolus injection in the lateral tail vein. Xenograft-bearing BALB/c nu/nu mice were administered [^18F]1 (0.5 μg; 0.7–9.6 MBq, molar activity range of 0.62–9.8 GBq/μmol with a standard deviation of 3.0 GBq/μmol) via intravenous bolus injection to the lateral tail vein. PET/CT scanning was completed using a VECTor4CT scanner (MILabs, Utrecht, the Netherlands) for 1 h and was immediately followed by culling, dissection, and gamma counting of selected organs. Tumour tissue was immediately flash frozen in liquid nitrogen and mounted in OCT before producing 10 μm thick sections for autoradiography and H&E staining. Alternatively, frozen tumour tissue was macerated and lysed in RIPA buffer for western blot analysis (full details available in the supporting information). Reconstruction of both CT and PET images was performed with the MILabs reconstruction analysis using a γ-ray energy window of 467–571 keV (background weight 2.5%), 0.8 mm^3 voxel size, 8 subsets, and 5 iterations using the manufacturer’s SROSEM reconstruction type. PET images were each registered to CT, attenuation corrected, calibrated by imaging a phantom containing a fluorine-18 standard solution, and analysed using PMod software package (version 3.807, PMOD Technologies).

Data set [7] concerns H1299 shATM and shGFP cells. As to the kind of experiment: Cell uptake of [18F]1. The settings on record: irradiated 4 Gy or sham-irradiated, 37 °C. It is filed as cell-based, human. How it is done:
as §1
To assess cellular uptake of [^18F]1, aliquots of H1299 shATM or shGFP cells were plated with 1 × 10^5 cells per well in 24-well plates in 500 μL complete growth medium and incubated overnight to allow cells to adhere. Cell culture medium was removed, cells washed with PBS and media replaced with DMEM (no additives). […] The amount of ^18F-activity associated with each fraction was determined using a Wizard2 Automatic Gamma Counter (PerkinElmer).

Data set [8] deals with H1299 shATM and shGFP cells. The data set can be described thus: Cell retention of [18F]1. The settings on record: after 1 h incubation with tracer, over 2 h. Format: cell-based, human. As for the experimental part:
as §1
Retention assays followed the same procedure with a 1-h incubation of cell with [^18F]1, but after culture medium was aspirated and cells washed with PBS (2 × 500 μL), it was replaced (500 μL DMEM) and cells incubated at 37 °C and 5% CO2 for the desired time. The amount of ^18F-activity retained in cells was then determined as above.

The mark [9] stands for this setting: BALB/c nu/nu mice, intravenous, 1 h.

Usually IC50 stands for the concentration that inhibits the measured activity by half.

T1 sequence (Q13315 whole entry): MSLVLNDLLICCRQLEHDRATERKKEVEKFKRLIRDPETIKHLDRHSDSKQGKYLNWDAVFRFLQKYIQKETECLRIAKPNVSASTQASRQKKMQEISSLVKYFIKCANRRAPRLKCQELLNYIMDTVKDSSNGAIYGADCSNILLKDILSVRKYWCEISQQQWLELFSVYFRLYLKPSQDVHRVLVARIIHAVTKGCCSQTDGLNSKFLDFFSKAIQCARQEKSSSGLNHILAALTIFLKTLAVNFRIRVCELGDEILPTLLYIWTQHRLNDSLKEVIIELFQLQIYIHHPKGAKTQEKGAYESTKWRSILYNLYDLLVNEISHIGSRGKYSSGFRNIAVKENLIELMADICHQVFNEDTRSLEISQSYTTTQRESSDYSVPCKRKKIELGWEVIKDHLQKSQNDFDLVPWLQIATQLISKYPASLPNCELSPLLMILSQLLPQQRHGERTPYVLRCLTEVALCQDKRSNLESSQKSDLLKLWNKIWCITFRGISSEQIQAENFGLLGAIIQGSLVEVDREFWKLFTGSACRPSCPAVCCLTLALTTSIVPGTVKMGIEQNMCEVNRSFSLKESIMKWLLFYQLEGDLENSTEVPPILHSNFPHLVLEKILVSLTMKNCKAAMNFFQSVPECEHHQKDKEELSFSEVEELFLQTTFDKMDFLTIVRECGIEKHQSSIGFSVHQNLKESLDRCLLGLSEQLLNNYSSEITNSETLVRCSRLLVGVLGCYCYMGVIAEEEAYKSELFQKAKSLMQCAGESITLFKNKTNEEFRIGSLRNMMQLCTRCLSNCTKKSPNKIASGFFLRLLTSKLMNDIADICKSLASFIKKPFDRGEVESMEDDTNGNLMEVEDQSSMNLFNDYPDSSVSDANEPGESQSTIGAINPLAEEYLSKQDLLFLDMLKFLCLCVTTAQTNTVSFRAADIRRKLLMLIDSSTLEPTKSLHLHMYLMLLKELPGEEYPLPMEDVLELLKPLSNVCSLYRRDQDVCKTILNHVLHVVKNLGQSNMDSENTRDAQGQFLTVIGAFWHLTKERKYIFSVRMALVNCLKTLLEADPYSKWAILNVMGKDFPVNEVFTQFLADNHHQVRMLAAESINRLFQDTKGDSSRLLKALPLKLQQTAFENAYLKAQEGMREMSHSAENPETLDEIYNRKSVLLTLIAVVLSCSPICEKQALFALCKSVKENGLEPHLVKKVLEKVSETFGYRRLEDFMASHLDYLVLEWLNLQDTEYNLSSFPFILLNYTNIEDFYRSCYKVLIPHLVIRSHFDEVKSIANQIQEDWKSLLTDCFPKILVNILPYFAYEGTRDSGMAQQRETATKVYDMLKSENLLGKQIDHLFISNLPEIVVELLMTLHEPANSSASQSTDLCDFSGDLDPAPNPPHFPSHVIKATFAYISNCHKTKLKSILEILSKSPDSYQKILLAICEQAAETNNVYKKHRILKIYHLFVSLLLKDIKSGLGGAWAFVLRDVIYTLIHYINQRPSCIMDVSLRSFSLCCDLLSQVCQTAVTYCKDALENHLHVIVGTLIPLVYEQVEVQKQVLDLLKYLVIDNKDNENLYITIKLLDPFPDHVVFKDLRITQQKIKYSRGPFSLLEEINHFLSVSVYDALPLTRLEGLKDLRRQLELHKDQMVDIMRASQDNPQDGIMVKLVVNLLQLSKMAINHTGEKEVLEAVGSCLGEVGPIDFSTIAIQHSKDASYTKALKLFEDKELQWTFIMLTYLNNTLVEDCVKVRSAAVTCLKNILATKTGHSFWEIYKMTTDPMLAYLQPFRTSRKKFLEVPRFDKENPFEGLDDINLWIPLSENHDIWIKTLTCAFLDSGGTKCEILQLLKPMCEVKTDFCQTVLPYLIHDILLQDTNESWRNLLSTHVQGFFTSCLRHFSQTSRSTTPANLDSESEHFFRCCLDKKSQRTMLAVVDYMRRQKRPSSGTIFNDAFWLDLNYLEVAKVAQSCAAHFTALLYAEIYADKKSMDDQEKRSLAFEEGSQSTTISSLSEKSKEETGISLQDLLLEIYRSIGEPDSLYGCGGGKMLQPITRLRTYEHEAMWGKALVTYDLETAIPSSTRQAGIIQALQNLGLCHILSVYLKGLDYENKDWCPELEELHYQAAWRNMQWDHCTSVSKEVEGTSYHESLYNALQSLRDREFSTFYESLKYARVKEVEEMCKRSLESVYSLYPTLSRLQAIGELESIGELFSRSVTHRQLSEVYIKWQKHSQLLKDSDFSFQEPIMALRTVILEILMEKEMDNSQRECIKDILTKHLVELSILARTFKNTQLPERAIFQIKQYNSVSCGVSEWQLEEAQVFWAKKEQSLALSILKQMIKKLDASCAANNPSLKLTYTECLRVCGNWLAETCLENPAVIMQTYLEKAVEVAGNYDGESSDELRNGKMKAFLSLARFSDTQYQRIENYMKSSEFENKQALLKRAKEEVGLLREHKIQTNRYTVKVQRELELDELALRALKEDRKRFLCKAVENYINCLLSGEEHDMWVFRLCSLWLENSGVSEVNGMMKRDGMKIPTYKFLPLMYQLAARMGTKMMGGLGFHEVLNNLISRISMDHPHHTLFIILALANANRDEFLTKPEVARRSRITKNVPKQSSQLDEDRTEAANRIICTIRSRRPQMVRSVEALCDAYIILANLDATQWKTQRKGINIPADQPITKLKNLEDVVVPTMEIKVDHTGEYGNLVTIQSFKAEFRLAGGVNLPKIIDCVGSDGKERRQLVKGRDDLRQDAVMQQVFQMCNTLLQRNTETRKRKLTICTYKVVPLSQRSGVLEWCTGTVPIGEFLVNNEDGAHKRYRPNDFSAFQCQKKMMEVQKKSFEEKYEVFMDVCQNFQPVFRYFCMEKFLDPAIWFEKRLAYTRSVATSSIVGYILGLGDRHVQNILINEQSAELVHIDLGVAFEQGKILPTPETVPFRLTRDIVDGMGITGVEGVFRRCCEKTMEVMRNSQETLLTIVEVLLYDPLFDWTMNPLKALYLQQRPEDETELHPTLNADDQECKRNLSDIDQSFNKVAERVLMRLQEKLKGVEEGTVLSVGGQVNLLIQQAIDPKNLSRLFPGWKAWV

For the compound `CC(C)n1c(=O)n(C)c2cnc3cc(F)c(-c4ccc(OCCCN5CCCCC5)nc4)cc3c21` [AZD1390], on ATM [1], the “pATM expression and downstream targets pKAP1 and pCHK2, western blot” value is “decrease in pATM expression”. Further, the “effect on [18F]1 cell-associated activity at high molar excess” value on ATM [2] is listed as “increase in cell-associated activity”. Moreover, the “effect on [18F]1 cell-associated activity at lower inhibitor concentrations” value at ATM [2] (H1299 shATM and shGFP cells) is “initial blocking effect”.

In the case of `C[C@@H]1CN(CC(=O)Nc2ccc3c(c2)Cc2cccc(-c4cc(=O)cc(N5CCOCC5)o4)c2S3)C[C@H](C)O1` [KU60019, reference compound], the “pATM expression and downstream targets pKAP1 and pCHK2, western blot” value at ATM [1] is on record as “decrease in pATM expression”. The “blocking of [18F]1 cell-associated activity” value at ATM [2] (increasing concentrations of blocking agent, H1299 shATM and shGFP cells, 1 h tracer incubation) was “significant blocking”.

For the compound `CC(C)n1c(=O)n(C)c2cnc3ccc(-c4ccc(OCCCN5CCCCC5)nc4[N+](=O)[O-])cc3c21` [compound 2], on ATM [1], the “pATM expression and downstream targets pKAP1 and pCHK2, western blot” value is reported as “decrease in pATM expression”.

For `CC(C)n1c(=O)n([11CH3])c2cnc3cc(F)c(-c4ccc(OCCCN5CCCCC5)nc4)cc3c21` [[^11C]AZD1390], the “blood–brain barrier penetration by PET” value in data set [3] is “ability to cross the blood–brain barrier”.

With `CC(C)n1c(=O)n(C)c2cnc3ccc(-c4ccc(OCCCN5CCCCC5)nc4F)cc3c21` [compound 1], the half-maximal inhibitory concentration (IC50) in the data set on ATM [4] (read-out: Cellular IC50 by catalytic inhibition: ATM) is less than 0.00043 µM; in the data set with ATR, more than 30 µM; in the data set on PI3K, 5.75 µM; with mTOR, more than 5.19 µM. For the same compound, in the data set with ATM [4] (reported value), the “IC50 value of ATM inhibition” value is given as “sub-nM”. Further, the “murine ATM inhibition and reduction of downstream target pKAP1, western blot” value on murine ATM is “murine ATM inhibition”. On ATM [1], the “pATM expression and downstream targets pKAP1 and pCHK2, western blot” value was “decrease in pATM expression”. For the same compound, the “effect on [18F]1 cell-associated activity at high molar excess” value at ATM [2] is on record as “increase in cell-associated activity”. Also, the “effect on [18F]1 cell-associated activity at lower inhibitor concentrations” value on ATM [2] (H1299 shATM and shGFP cells) is listed as “initial blocking effect”.

Turning to `CC(C)n1c(=O)n(C)c2cnc3ccc(-c4ccc(OCCCN5CCCCC5)nc4[18F])cc3c21` [[^18F]1], the “difference in uptake between wild type and ATM-null mice” value in data set [5] (C57BL/6 mice) is “Significant differences in uptake between the two mice were only observed in the kidneys and liver”. Moreover, the clearance route entry in data set [5] (wild type and ATM-null C57BL/6 mice) is “hepatobiliary clearance”. Moreover, in data set [6] (setting [9]), the “uptake in H1299 tumour xenografts (shATM)” value was determined as 0.35 ± 0.10 %ID/g, the “uptake in H1299 tumour xenografts (shGFP)” value was determined as 0.35 ± 0.14 %ID/g and the “uptake in H1299 tumour xenografts (wild type)” value is given as 0.38 ± 0.12 %ID/g. Further, the “tumour uptake, range” value in data set [6] (after 1 h, all tumour types) was 0.13–0.90 %ID/g. Further, in [6] (xenograft-bearing BALB/c nu/nu mice), the clearance route entry was “hepatobiliary clearance”. Moreover, the “cell-associated activity (uptake)” value in data set [7] is “increase in cell-associated activity over 1 h followed by a plateau”. In data set [8], the “decrease in cell-associated activity (retention)” value was “approximately 50%”.

These data come from paper PMC9375819 (EJNMMI Research, 2022).
